The subject of test [1] is aCD3/aCD28-stimulated human PBMCs. Nature of the test: Cytokine production in aCD3/aCD28 stimulated human PBMCs. It counts as cell-based. The note with it: PBMC, 18 h. As for the experimental part: In order to determine the immune modulatory effect of compounds of compounds of the present invention in human PBMCs, compounds were assessed in the following assay set-up:
Buffy coats were obtained from a local hospital, diluted 3 fold with PBS and layered onto an isotonic Ficoll separating solution d=1.077 g/mL in 50 mL centrifuge tubes. The tubes were centrifuged at 914 g for 25 min at room temperature with the brakes off. The PBMC layer was removed and washed twice with ice-cold PBS. Erythrocytes were lysed by addition of ddH2O and cells were resuspended in X-Vivo15 (Lonza).
1e6 cells/mL were stimulated with soluble anti CD3/CD28 antibodies (1 μg/mL both, clones OKT3 and 28.2) in the presence of described compounds. Cells were incubated for 18 h at 37° C., 5% CO2. Assay plates were centrifuged at 400 g for 5 min and supernatants harvested. Cytokine concentration in tissue culture supernatants were determined with MSD or HTRF kits (MSD and Cisbio), according to manufacturer's instructions.

The test system of test [2] is aCD3/aCD28-stimulated human CD4+-T-cells. Nature of the test: IL-2 production and activation markers in aCD3/aCD28 stimulated isolated human CD4+-T-cells. It counts as cell-based. The note with it: IL-2 production at 3 μM compound. Here is the method: • Buffy coat content was transferred to sterile plastic bottle and filled up to 480 ml with PBS, and distributed equally to 16×50 ml tubes (30 ml/tube) • Underlayed with ˜11 ml Lymphoprep and centrifuged 20 min (2200 rpm) • The interphase containing lymphocytes was taken off with transfer pipette, cells were washed twice with PBS and pooled to one tube to determine cell count (Coulter Diff ACT) Isolation of Immune Cell Subfractions from PBMCs by MACS • PBMCs were resuspended in MACS buffer (80 μl MACS-buffer/10^7 cells) and cells were isolated with Auto-MACS device using respective kits following manufacturer's recommendations TCR Stimulation and Measurement of T Cell Activation
Isolated T cells were plated in Xvivo medium at 1.5*10 ^5 cells per in 96 well culture plates and TCR-stimulated with anti-CD3/28 mAbs in the presence of compound as indicated. Cytokine production was determined at 24 h or 48 h following TCR stimulation in cell culture supernatants using commercially available ELISA kits (BD and eBioscience) as recommended by the manufacturer. T cell proliferation and CD25 expression (CD25-PC5 reagent purchased from Beckman Coulter) was determined by flow cytometry (Beckman-Coulter FC500) and analysed with Kaluza Software. For measurement of CD69 expression, isolated CD4 and CD8 T cells were plated in Xvivo medium at […] per in 96 well culture plates and TCR-stimulated with anti-CD3/28 mAbs in the presence of compound. CD69 expression was determined at 24 h following TCR stimulation by flow cytometry (CD4eF450, CD8APCeF780 and CD69-PC7 reagent purchased from eBioscience) and analysed with Kaluza Software.
Buffy coats were obtained from Austrian Red Cross, diluted 3 fold with PBS and layered onto an isotonic Ficoll separating solution d=1.077 g/m in 50 ml centrifuge tubes. The tubes were centrifuged at 914 g for 25 min at room temperature with the brakes off. The PBMC layer was removed and washed twice with ice-cold PBS. CD4 T cells were isolated using CD4 microbeads (Milteny) and the AutoMACS device following manufacturer's instructions.
Compound examples of the present invention were classified according to the following activity criteria and are listed in Table 4a: • Activity Class A: IL-2 production at 3 μM compound concentration >10 ng/mL • Activity Class B: IL-2 production at 3 μM compound concentration between 2-10 ng/mL • Activity Class C: IL-2 production at 3 μM compound concentration between 2-fold increase as compared to mean IL-2 production of stimulated cells in the absence of compounds and <2 ng/mL

Setting [3] is: enhancement of IFN-γ production, read-out: Activity Class IFN-γ.
[4] abbreviates: enhancement of IL-2 production, read-out: Activity Class IL-2.

The structures appear in SMILES notation. Structures can show the parent of a compound that is named as a salt. Where two headings read alike, the source gives them in different places.

With `Cl.N[C@H]1CSc2cc(F)c(C(=O)NCc3ccc(F)cc3)cc2N(Cc2nnc(C3CC3)s2)C1=O` [Example 113, (3R)-3-amino-5-[(5-cyclopropyl-1,3,4-thiadiazol-2-yl)methyl]-8-fluoro-N-[(4-fluorophenyl)methyl]-4-oxo-2,3,4,5-tetrahydro-1,5-benzothiazepine-7-carboxamide hydrochloride], the values for the EC50 in test [1] (setting [3]) and in test [1] (setting [4]) were 1580 to 5010 nM and > 5010 nM, respectively. Moreover, the “Activity Class CD4+” value in test [2] was “C (IL-2 production at 3 μM compound concentration between 2-fold increase as compared to mean IL-2 production of stimulated cells in the absence of compounds and <2 ng/mL)”.
On to `Cl.N[C@H]1CS(=O)(=O)c2cc(F)c(C(=O)NCC(F)(F)F)cc2N(Cc2ccc(Cl)cc2)C1=O` [Example 92, (3R)-3-amino-5-[(4-chlorophenyl)methyl]-8-fluoro-1,1,4-trioxo-N-(2,2,2-trifluoro-ethyl)-2,3,4,5-tetrahydro-1λ^6,5-benzothiazepine-7-carboxamide hydrochloride], for which the EC50 in test [1] (setting [3]) and in test [1] (setting [4]) was 1580 to 5010 nM throughout. In addition, the “Activity Class CD4+” value in test [2] was “B (IL-2 production at 3 μM compound concentration between 2-10 ng/mL)”.
Take `CCCCNC(=O)c1ccc2c(c1)N(Cc1ccc(Cl)cc1)C(=O)[C@@H](N)C[S+]2[O-].Cl` (stereo partly drawn) [Example 66, (3R)-3-amino-N-butyl-5-[(4-chlorophenyl)methyl]-1,4-dioxo-2,3,4,5-tetrahydro-1λ^4,5-benzothiazepine-7-carboxamide hydrochloride]: the EC50 is < 1580 nM in test [1] (setting [3]) and 1580 to 5010 nM in test [1] (setting [4]). Also, the “Activity Class CD4+” value in test [2] was “C (IL-2 production at 3 μM compound concentration between 2-fold increase as compared to mean IL-2 production of stimulated cells in the absence of compounds and <2 ng/mL)”.
In the case of `CCCCNC(=O)c1cc2c(cc1N(C)C)S(=O)(=O)C[C@H](N)C(=O)N2Cc1ccc(Cl)cc1` [Example 114, (3R)-3-amino-N-butyl-5-[(4-chlorophenyl)methyl]-8-(dimethylamino)-1,1,4-trioxo-2,3,4,5-tetrahydro-1 λ^6,5-benzothiazepine-7-carboxamide hydrochloride], the results for the EC50 in test [1] (setting [3]) and in test [1] (setting [4]) were 1580 to 5010 nM and > 5010 nM, respectively. Besides, in test [2], the “Activity Class CD4+” value is “C (IL-2 production at 3 μM compound concentration between 2-fold increase as compared to mean IL-2 production of stimulated cells in the absence of compounds and <2 ng/mL)”.
Turning to `Cl.N[C@H]1CS(=O)(=O)c2cc(F)c(C(=O)NOc3ccccc3)cc2N(Cc2ccc(OC(F)(F)F)cc2)C1=O` [Example 74, (3R)-3-amino-8-fluoro-1,1,4-trioxo-N-phenoxy-5-{[4-(trifluoromethoxy)phenyl]methyl}-2,3,4,5-tetrahydro-1λ^6,5-benzothiazepine-7-carboxamide hydrochloride], the EC50 in test [1] (setting [3]) was 1580 to 5010 nM; in test [1] (setting [4]) it was > 5010 nM. In addition, the “Activity Class CD4+” value in test [2] was “C (IL-2 production at 3 μM compound concentration between 2-fold increase as compared to mean IL-2 production of stimulated cells in the absence of compounds and <2 ng/mL)”.
Consider `CCCCNC(=O)c1cc2c(cc1F)SC[C@H](N)C(=O)N2Cc1ccc(Cl)cc1.Cl` [Example 41, (3R)-3-amino-N-butyl-5-[(4-chlorophenyl)methyl]-8-fluoro-4-oxo-2,3,4,5-tetrahydro-1,5-benzothiazepine-7-carboxamide hydrochloride], for which the values for the EC50 in test [1] (setting [3]) and in test [1] (setting [4]) were < 1580 nM and 1580 to 5010 nM, respectively. Further, the “Activity Class CD4+” value in test [2] was “C (IL-2 production at 3 μM compound concentration between 2-fold increase as compared to mean IL-2 production of stimulated cells in the absence of compounds and <2 ng/mL)”.
On to `Cl.N[C@H]1CSc2ccc(C(=O)NCc3ccccc3)cc2N(Cc2ccc(OC(F)(F)F)cc2)C1=O` [Example 6, (3R)-3-amino-N-benzyl-4-oxo-5-{[4-(trifluoromethoxy)phenyl]methyl}-2,3,4,5-tetrahydro-1,5-benzothiazepine-7-carboxamide hydrochloride], for which the EC50 is < 1580 nM in test [1] (setting [3]) and 1580 to 5010 nM in test [1] (setting [4]). In addition, the “Activity Class CD4+” value in test [2] is recorded as “B (IL-2 production at 3 μM compound concentration between 2-10 ng/mL)”.
Turning to `CCC(C)NC(=O)c1cc2c(cc1F)S(=O)(=O)C[C@H](N)C(=O)N2Cc1ccc(Cl)cc1.Cl` (stereo partly drawn) [Example 95, (3R)-3-amino-N-(butan-2-yl)-5-[(4-chlorophenyl)methyl]-8-fluoro-1,1,4-trioxo-2,3,4,5-tetrahydro-1λ^6,5-benzothiazepine-7-carboxamide hydrochloride], the EC50 in test [1] (setting [3]) was < 1580 nM; in test [1] (setting [4]) it was 1580 to 5010 nM. Also, in test [2], the “Activity Class CD4+” value was “B (IL-2 production at 3 μM compound concentration between 2-10 ng/mL)”.
In the case of `Cc1nc(-c2ccc(CN3C(=O)[C@@H](N)CSc4ccc(C(=O)NCC5CCOCC5)cc43)cc2)no1.Cl` [Example 44, (3R)-3-amino-5-{[4-(5-methyl-1,2,4-oxadiazol-3-yl)phenyl]methyl}-N-(oxan-4-ylmethyl)-4-oxo-2,3,4,5-tetrahydro-1,5-benzothiazepine-7-carboxamide hydrochloride], the EC50 in test [1] (setting [3]) is 1580 to 5010 nM; in test [1] (setting [4]), > 5010 nM. In addition, the “Activity Class CD4+” value in test [2] is “C (IL-2 production at 3 μM compound concentration between 2-fold increase as compared to mean IL-2 production of stimulated cells in the absence of compounds and <2 ng/mL)”.
In the case of `Cl.N[C@H]1CS(=O)(=O)c2ccc(C(=O)NCCCC(F)(F)F)cc2N(Cc2ccc(Cl)cc2)C1=O` [Example 80, (3R)-3-amino-5-[(4-chlorophenyl)methyl]-1,1,4-trioxo-N-(4,4,4-trifluorobutyl)-2,3,4,5-tetrahydro-1λ^6,5-benzothiazepine-7-carboxamide hydrochloride], the EC50 in test [1] (setting [3]) and in test [1] (setting [4]) was < 1580 nM throughout. In test [2], the “Activity Class CD4+” value is given as “A (IL-2 production at 3 μM compound concentration >10 ng/mL)”.
Regarding `CC(C)C(C)NC(=O)c1ccc2c(c1)N(Cc1ccc(Cl)cc1)C(=O)[C@@H](N)CS2(=O)=O.Cl` (stereo partly drawn) [Example 83, (3R)-3-amino-5-[(4-chlorophenyl)methyl]-N-(3-methylbutan-2-yl)-1,1,4-trioxo-2,3,4,5-tetrahydro-1λ^6,5-benzothiazepine-7-carboxamide hydrochloride], the EC50 in test [1] (setting [3]) was < 1580 nM; in test [1] (setting [4]) it was > 5010 nM. The “Activity Class CD4+” value in test [2] is “B (IL-2 production at 3 μM compound concentration between 2-10 ng/mL)”.
On to `Cl.N[C@H]1CS(=O)(=O)c2cc(F)c(C(=O)NCCC(F)(F)F)cc2N(Cc2ccc(Cl)cc2)C1=O` [Example 93, (3R)-3-amino-5-[(4-chlorophenyl)methyl]-8-fluoro-1,1,4-trioxo-N-(3,3,3-trifluoro-propyl)-2,3,4,5-tetrahydro-1λ^6,5-benzothiazepine-7-carboxamide hydrochloride], for which the values for the EC50 in test [1] (setting [3]) and in test [1] (setting [4]) were 1580 to 5010 nM and < 1580 nM, respectively. The “Activity Class CD4+” value in test [2] is “A (IL-2 production at 3 μM compound concentration >10 ng/mL)”.
Consider `CC(C)NC(=O)c1ccc2c(c1)N(Cc1ccc(Cl)cc1)C(=O)[C@@H](N)CS2(=O)=O.Cl` [Example 79, (3R)-3-amino-5-[(4-chlorophenyl)methyl]-1,1,4-trioxo-N-(propan-2-yl)-2,3,4,5-tetrahydro-1λ^6,5-benzothiazepine-7-carboxamide hydrochloride], for which the values for the EC50 in test [1] (setting [3]) and in test [1] (setting [4]) were 1580 to 5010 nM and > 5010 nM, respectively. Besides, the “Activity Class CD4+” value in test [2] is reported as “B (IL-2 production at 3 μM compound concentration between 2-10 ng/mL)”.
As to `CC(C)NC(=O)c1cc2c(cc1F)SC[C@H](N)C(=O)N2Cc1ccc(OC(F)(F)F)cc1.Cl` [Example 15, (3R)-3-amino-8-fluoro-4-oxo-N-(propan-2-yl)-5-{[4-(trifluoromethoxy)phenyl]-methyl}-2,3,4,5-tetrahydro-1,5-benzothiazepine-7-carboxamide hydrochloride], the “Activity Class CD4+” value in test [2] was “B (IL-2 production at 3 μM compound concentration between 2-10 ng/mL)”.
